Measured values from US20210251228A1, “METHODS FOR REPELLING DROSOPHILA SPECIES USING 2-PENTYLFURAN” (The United States of America, as represented by the …, priority 2020, published 2021).

Columns and labels:
Drosophila suzukii [1] = assay: Field cage choice test: SWD oviposition on raspberries in deli cups; format: in vivo; conditions: two-choice field cage, 10 mg/h sachet, 24 h, N=4
Method: Field cage choice test: We evaluated the effect of 2-pentylfuran released at 10 mg/h on SWD oviposition in choice oviposition experiment under semi-field condition using flies from SWD lab colony in Hawaii. For this experiment, we used a different, more user-friendly dispenser (polyethylene sachet: see Cha et al. 2017). The 10 mg/h release rate of 2-pentylfuran, inferred from calculating weight loss of loaded dispensers over time as described by Cha et al. 2017 (linear regression between weight of sachet containing 2-pentylfuran (mg) and time (h) during 30 h period: sachet weight=669.1[…]*time, R2=0.99, P<0.0001) was achieved using equilateral triangle shaped sachets made with two layers of polyethylene film (0.0508 mm thickness, Thermwell Products Co., Inc, Mahwah, N.J.) with 5 cm on each side. One 2 cm by 1 cm diameter piece of cotton dental wick was placed into the sachet and 1 ml of neat 2-pentylfuran was loaded onto the dental wick with a syringe. Loaded sachets were sealed using an Impulse heat-sealer (Model MP-12C, Midwest Pacific Inc., St. Louis). […]
(§1) Statistical Analyses: Trap catch data from multiple-choice assay and two-choice assay were analyzed in a randomized block design with block as a random factor and different EAD-active compounds as a fixed factor using Poisson distribution with log link function and maximum likelihood estimation (Proc Glimmix, SAS Institute, SAS/STAT 9.2 User's Guide, Second Edition, 2009, SAS Institute Inc., Cary, N.C.). Oviposition data from (1) laboratory dose-response test, (2) semi-field cage choice test, and (3) first and second field experiments were also analyzed in a randomized block design with block as a random factor and different 2-pentylfuran treatments as a fixed factor using Poisson distribution with log link function and maximum likelihood estimation. […]

Drosophila suzukii [2] = assay: Multiple-choice bioassay: EAD-active compound added to 4-component SWD lure in gated cup traps; format: in vivo
Method: Multiple-Choice Bioassay: The multiple choice assay (N=8) was conducted with an arena design using a dome cage (60 cm W×60 cm L×60 cm H; BugDorm-2120 Insect tent; shop.bugdorm.com) as described in Cha et al. 2018b (Cha, D. H., et al., Environ. Entomol., 47: 946-950 (2018b)) to evaluate the effect of the individual EAD-active compounds (FIG. 1) on SWD attraction to previously identified 4-component SWD lure (Cha et al. 2012; Cha, D. H., et al., Pest Manag. Sci., 70: 324-331 (2014); Cha, D. H., et al., Environ. Entomol., 46: 907-915 (2017)). Among 18 EAD-active compounds in FIG. 1, acetoin, 1-hexanol, isoamyl acetate, 2-methylbutyl acetate, and 2-phenylethanol were previously tested for their behavioral effects (Cha et al. 2012, 2014) and not considered in this study. Therefore, we compared 13 EAD-active compounds in this study. Within each arena, 14 traps were positioned in a circle (40 cm diameter) at equal distance with each trap 9 cm apart along the circumference. We used an aluminum foil-covered 100-ml glass beaker with a cut centrifuge vial (0.7 cm diameter) inserted in the foil for SWD entry, as a trap (Cha et al. 2012). All 14 traps had the SWD lure comprised of acetic acid, ethanol, acetoin, and methionol. Acetic acid and ethanol were released from a 20 ml solution of 4% acetic acid+8% ethanol with soap, presented as a drowning solution in each trap. Acetoin (1 ml of 50% acetoin in water) and methionol (0.5 ml neat methionol) were individually released from two 1.5-ml vials with 3-mm hole on the lid with a piece of cotton as described in Cha et al. 2014. One of these 14 traps served as a control (with the 4-component SWD lure only) and the remaining 13 traps had one of the 13 EAD-active compounds added to the SWD-lure, loaded as described in Cha et al. 2012 and released from a 1.5-ml vial with 3-mm hole with a piece of cotton. […] The number of flies inside treatment and control traps was counted after 20 h.
as §1

CCCCCc1ccco1 [2-pentylfuran]
reduction of SWD oviposition on raspberries (Drosophila suzukii [1]; deli cups with 25% opening): 85%
reduction of SWD oviposition on raspberries (Drosophila suzukii [1]; deli cups with 50% opening): 62%
reduction of SWD oviposition on raspberries (Drosophila suzukii [1]; deli cups with 75% opening): 75%
reduction of trap catches of SWD (Drosophila suzukii [2]; SWD lure + 2-pentylfuran vs SWD lure only (62 SWD/trap)): 98%
negative effect on SWD attraction to the SWD lure compared with 1-octen-3-ol (Drosophila suzukii [2]; multiple-choice, 20 h, N=8): significantly stronger than 1-octen-3-ol
effect on SWD attraction to (catch in traps baited with) the 4-component SWD lure (Drosophila suzukii [2]; one compound added to SWD lure, 14 traps per arena, flies counted after 20 h, N=8): greatest reduction
trap catch of SWD (Drosophila suzukii [2]; trap with SWD lure + 2-pentylfuran, 20 h): 1 SWD/trap
